In US10227323B2, “Glucosylceramide synthase inhibitors for the treatment of diseases” (BIOMARIN PHARMACEUTICAL INC., priority 2013, dated 2019):
Where two headings read alike, the source gives them in different places.

Target: T1, GCS (Canis lupus familiaris, UniProt A0A8I3MXG6)
T1 sequence (A0A8I3MXG6 1-394): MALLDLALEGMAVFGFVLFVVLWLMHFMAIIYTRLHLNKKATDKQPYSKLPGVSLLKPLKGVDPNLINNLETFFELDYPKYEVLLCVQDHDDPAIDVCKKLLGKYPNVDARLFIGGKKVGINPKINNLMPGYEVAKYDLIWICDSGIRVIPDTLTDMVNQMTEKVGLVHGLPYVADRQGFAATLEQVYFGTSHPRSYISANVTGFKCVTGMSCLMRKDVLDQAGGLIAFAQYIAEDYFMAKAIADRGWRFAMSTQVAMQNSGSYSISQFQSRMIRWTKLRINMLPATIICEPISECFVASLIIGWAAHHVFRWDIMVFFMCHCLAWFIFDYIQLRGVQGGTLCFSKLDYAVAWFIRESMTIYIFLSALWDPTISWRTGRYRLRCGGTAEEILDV
Assay: Assay 1: GCS Enzymatic Assay (MDCK cell lysate, C6-NBD-Ceramide, LC/MS)
Format: biochemical, canine
Settings: read-out: IC50 (nM) generated from Assay 1
How it was run: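 LC/MS/MS measurement of glucosylceramide and NBD-ceramide after a 1 h, 37 °C reaction with 100 μM UDP-glucose and 10 μM C6-NBD-ceramide gave IC50s or percent inhibition.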

| SMILES | IC50 (Table 2, data without asterisk) | IC50 (Table 3, MDCK cell lysate) |
| --- | --- | --- |
| Cc1c2ccc(-c3ccc(C(=O)C(=O)N[C@H](CN4CCCC4)[C@H](O)c4ccc(OC5CC5)c(Cl)c4)cc3)cc2nn1C [Example 347, N-((1R,2R)-1-(3-chloro-4-cyclopropoxyphenyl)-1-hydroxy-3-(pyrrolidin-1-yl)propan-2-yl)-2-(4-(2,3-dimethyl-2H-indazol-6-yl)phenyl)-2-oxoacetamide] | < 50 nM | – |
| COc1cc([C@@H](O)[C@@H](CN2CCCC2)NC(=O)C(=O)c2cc3ccc(Cl)cc3s2)cc(F)c1OC(C)C [Example 348, 2-(6-chlorobenzo[b]thiophen-2-yl)-N-((1R,2R)-1-(3-fluoro-4-isopropoxy-5-methoxyphenyl)-1-hydroxy-3-(pyrrolidin-1-yl)propan-2-yl)-2-oxoacetamide] | 50 to 5000 nM | – |
| O=C(N[C@H](CN1CCCC1)[C@H](O)c1ccc(OC2CC2)c(Cl)c1)C(=O)c1ccc(-c2ccn(C3CC3)n2)cc1 [Example 349, N-((1R,2R)-1-(3-chloro-4-cyclopropoxyphenyl)-1-hydroxy-3-(pyrrolidin-1-yl)propan-2-yl)-2-(4-(1-cyclopropyl-1H-pyrazol-3-yl)phenyl)-2-oxoacetamide] | < 50 nM | – |
| CC(C)n1ccc(-c2ccc(C(=O)C(=O)N[C@H](CN3CCCC3)[C@H](O)c3cc(F)c4c(c3)OCCO4)cc2)n1 [Example 352, N-((1R,2R)-1-(8-fluoro-2,3-dihydrobenzo[b][1,4]dioxin-6-yl)-1-hydroxy-3-(pyrrolidin-1-yl)propan-2-yl)-2-(4-(1-isopropyl-1H-pyrazol-3-yl)phenyl)-2-oxoacetamide] | < 50 nM | – |
| O=C(N[C@H](CN1CCCC1)[C@H](O)c1ccc(OC2CC2)c(Cl)c1)C(=O)c1ccc2nn(-c3ccc(F)cc3)cc2c1 [Example 354, N-((1R,2R)-1-(3-chloro-4-cyclopropoxyphenyl)-1-hydroxy-3-(pyrrolidin-1-yl)propan-2-yl)-2-(2-(4-fluorophenyl)-2H-indazol-5-yl)-2-oxoacetamide] | < 50 nM | – |
| CC(C)(O)c1ccc(-c2ccc(C(=O)C(=O)N[C@H](CN3CCCC3)[C@H](O)c3cc(F)c4c(c3)OCCO4)cc2)cc1 [Example 356, N-((1R,2R)-1-(8-fluoro-2,3-dihydrobenzo[b][1,4]dioxin-6-yl)-1-hydroxy-3-(pyrrolidin-1-yl)propan-2-yl)-2-(4′-(2-hydroxypropan-2-yl)-[1,1′-biphenyl]-4-yl)-2-oxoacetamide] | < 50 nM | – |
| CC(C)c1ccc(-c2ccc(C(=O)C(=O)N[C@H](CN3CCCC3)[C@H](O)c3cc(F)c4c(c3)OCCO4)cc2)cc1 [Example 357, N-((1R,2R)-1-(8-fluoro-2,3-dihydrobenzo[b][1,4]dioxin-6-yl)-1-hydroxy-3-(pyrrolidin-1-yl)propan-2-yl)-2-(4′-isopropyl-[1,1′-biphenyl]-4-yl)-2-oxoacetamide] | < 50 nM | – |
| O=C(N[C@H](CN1CCCC1)[C@H](O)c1ccc(OC2CC2)c(F)c1)C(=O)c1ccc(-c2ccc(Cl)s2)cc1 [Example 359, 2-(4-(5-chlorothiophen-2-yl)phenyl)-N-((1R,2R)-1-(4-cyclopropoxy-3-fluorophenyl)-1-hydroxy-3-(pyrrolidin-1-yl)propan-2-yl)-2-oxoacetamide] | < 50 nM | – |
| O=C(N[C@H](CN1CCCC1)[C@H](O)c1ccc(OC2CC2)c(Cl)c1)C(=O)c1cc2cc(Cl)ccc2s1 [Example 384, N-((1R,2R)-1-(3-chloro-4-cyclopropoxyphenyl)-1-hydroxy-3-(pyrrolidin-1-yl)propan-2-yl)-2-(5-chlorobenzo[b]thiophen-2-yl)-2-oxoacetamide] | – | < 50 nM |
| O=C(N[C@H](CN1CCCC1)[C@H](O)c1ccc(Cl)cc1)C(=O)c1cc2ccc(Cl)cc2s1 [Example 386, 2-(6-chlorobenzo[b]thiophen-2-yl)-N-((1R,2R)-1-(4-chlorophenyl)-1-hydroxy-3-(pyrrolidin-1-yl)propan-2-yl)-2-oxoacetamide] | – | 50 to 5000 nM |
| O=C(N[C@H](CN1CCC1)[C@H](O)c1ccc(OC2CC2)c(F)c1)C(=O)c1cc2cc(Cl)ccc2s1 [Example 387, N-((1R,2R)-3-(azetidin-1-yl)-1-(4-cyclopropoxy-3-fluorophenyl)-1-hydroxypropan-2-yl)-2-(5-chlorobenzo[b]thiophen-2-yl)-2-oxoacetamide] | – | < 50 nM |
| O=C(N[C@H](CN1CCCC1)[C@H](O)c1ccc(Cl)cc1)C(=O)c1ccc(-c2ccc(F)cc2)cc1 [Example 389, N-((1R,2R)-1-(4-chlorophenyl)-1-hydroxy-3-(pyrrolidin-1-yl)propan-2-yl)-2-(4′-fluoro-[1,1′-biphenyl]-4-yl)-2-oxoacetamide] | – | 50 to 5000 nM |
| O=C(N[C@H](CN1CCCC1)[C@H](O)c1ccc(OC2CC2)cc1)C(F)(F)CCc1ccc2ccccc2c1 [Example 390, N-((1R,2R)-1-(4-cyclopropoxyphenyl)-1-hydroxy-3-(pyrrolidin-1-yl)propan-2-yl)-2,2-difluoro-4-(naphthalen-2-yl)butanamide] | – | < 50 nM |
| O=C(N[C@H](CN1CCCC1)[C@H](O)c1ccc(OC2CC2)cc1)C(=O)c1cc2cc(Cl)ccc2s1 [Example 391, 2-(5-chlorobenzo[b]thiophen-2-yl)-N-((1R,2R)-1-(4-cyclopropoxyphenyl)-1-hydroxy-3-(pyrrolidin-1-yl)propan-2-yl)-2-oxoacetamide] | – | < 50 nM |
| O=C(N[C@H](CN1CCCC1)[C@H](O)c1ccc(OC2CC2)cc1)C(=O)c1ccc(-c2ccc(Cl)s2)cc1 [Example 392, 2-(4-(5-chlorothiophen-2-yl)phenyl)-N-((1R,2R)-1-(4-cyclopropoxyphenyl)-1-hydroxy-3-(pyrrolidin-1-yl)propan-2-yl)-2-oxoacetamide] | – | < 50 nM |
| O=C(N[C@H](CN1CCCC1)[C@H](O)c1ccc(OC2CC2)cc1)C(F)(F)c1ccc(-c2ccc(Cl)s2)cc1 [Example 393, 2-(4-(5-chlorothiophen-2-yl)phenyl)-N-((1R,2R)-1-(4-cyclopropoxyphenyl)-1-hydroxy-3-(pyrrolidin-1-yl)propan-2-yl)-2,2-difluoroacetamide] | – | < 50 nM |

Next, values leading:

| IC50 (Table 2, data without asterisk) | IC50 (Table 3, MDCK cell lysate) | SMILES |
| --- | --- | --- |
| < 50 nM | – | CC(C)n1ccc2ccc(-c3ccc(C(=O)C(=O)N[C@H](CN4CCCC4)[C@H](O)c4cc(F)c5c(c4)OCCO5)cc3)cc21 [Example 345, N-((1R,2R)-1-(8-fluoro-2,3-dihydrobenzo[b][1,4]dioxin-6-yl)-1-hydroxy-3-(pyrrolidin-1-yl)propan-2-yl)-2-(4-(1-isopropyl-1H-indol-6-yl)phenyl)-2-oxoacetamide] |
| < 50 nM | – | CC(C)n1ccc2ccc(-c3ccc(C(=O)C(=O)N[C@H](CN4CCCC4)[C@H](O)c4ccc(OC5CC5)c(Cl)c4)cc3)cc21 [Example 346, N-((1R,2R)-1-(3-chloro-4-cyclopropoxyphenyl)-1-hydroxy-3-(pyrrolidin-1-yl)propan-2-yl)-2-(4-(1-isopropyl-1H-indo1-6-yl)phenyl)-2-oxoacetamide] |
| < 50 nM | – | O=C(N[C@H](CN1CCCC1)[C@H](O)c1cc(F)c2c(c1)OCCO2)C(=O)c1ccc(-c2ccn(C3CC3)n2)cc1 [Example 350, 2-(4-(1-cyclopropyl-1H-pyrazol-3-yl)phenyl)-N-((1R,2R)-1-(8-fluoro-2,3-dihydrobenzo[b][1,4]dioxin-6-yl)-1-hydroxy-3-(pyrrolidin-1-yl)propan-2-yl)-2-oxoacetamide] |
| < 50 nM | – | CC(C)n1ccc(-c2ccc(C(=O)C(=O)N[C@H](CN3CCCC3)[C@H](O)c3ccc(OC4CC4)c(Cl)c3)cc2)n1 [Example 351, N-((1R,2R)-1-(3-chloro-4-cyclopropoxyphenyl)-1-hydroxy-3-(pyrrolidin-1-yl)propan-2-yl)-2-(4-(1-isopropyl-1H-pyrazol-3-yl)phenyl)-2-oxoacetamide] |
| < 50 nM | – | O=C(N[C@H](CN1CCCC1)[C@H](O)c1ccc(OC2CC2)c(Cl)c1)C(=O)c1ccc2c(cnn2-c2ccc(F)cc2)c1 [Example 353, N-((1R,2R)-1-(3-chloro-4-cyclopropoxyphenyl)-1-hydroxy-3-(pyrrolidin-1-yl)propan-2-yl)-2-(1-(4-fluorophenyl)-1H-indazol-5-yl)-2-oxoacetamide] |
| < 50 nM | – | C=C(C)c1ccc(-c2ccc(C(=O)C(=O)N[C@H](CN3CCCC3)[C@H](O)c3ccc(OC4CC4)c(Cl)c3)cc2)cc1 [Example 355, N-((1R,2R)-1-(3-chloro-4-cyclopropoxyphenyl)-1-hydroxy-3-(pyrrolidin-1-yl)propan-2-yl)-2-oxo-2-(4′-(prop-1-en-2-yl)-[1,1′-biphenyl]-4-yl)acetamide] |
| < 50 nM | – | CC(C)(O)c1ccc(-c2ccc(C(=O)C(=O)N[C@H](CN3CCCC3)[C@H](O)c3ccc(OC4CC4)c(Cl)c3)cc2)cc1 [Example 358, N-((1R,2R)-1-(3-chloro-4-cyclopropoxyphenyl)-1-hydroxy-3-(pyrrolidin-1-yl)propan-2-yl)-2-(4′-(2-hydroxypropan-2-yl)-[1,1′-biphenyl]-4-yl)-2-oxoacetamide] |
| – | 50 to 5000 nM | O=C(N[C@H](CN1CCCC1)[C@H](O)c1ccc(OC2CC2)c(Cl)c1)C(=O)c1ccc(-n2ccnn2)cc1 [Example 385, 2-(4-(1H-1,2,3-triazol-1-yl)phenyl)-N-((1R,2R)-1-(3-chloro-4-cyclopropoxyphenyl)-1-hydroxy-3-(pyrrolidin-1-yl)propan-2-yl)-2-oxoacetamide] |
| – | < 50 nM | O=C(N[C@H](CN1CCCC1)[C@H](O)c1ccc(OC2CC2)cc1)C(=O)c1cc2ccccc2s1 [Example 388, 2-(benzo[b]thiophen-2-yl)-N-((1R,2R)-1-(4-cyclopropoxyphenyl)-1-hydroxy-3-(pyrrolidin-1-yl)propan-2-yl)-2-oxoacetamide] |
